Several values for one entry are separate records, joined by “and”; a condition that tells them apart may be missing. Equal values may be shown once.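 Test compounds were applied to cells in 96-well plates for 48 hours at 5 doses. GI50 is the concentration that inhibits growth by half. TGI: total growth inhibition.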
Key:
Assay in all cases: NCI-60 cell line screen, 48 h
[1] = tested on: SK-MEL-28 melanoma
[2] = tested on: DMS 114 small cell lung
[3] = tested on: UACC-62 melanoma
[4] = tested on: K-562 leukemia
[5] = tested on: TK-10 renal
[6] = tested on: MOLT-4 leukemia
[7] = tested on: SN12C renal
[8] = tested on: NCI-H226 lung
[9] = tested on: M14 melanoma
[10] = tested on: HCT-15 colon
[11] = tested on: OVCAR-4 ovarian
[12] = tested on: NCI-H23 lung
[13] = tested on: SK-MEL-2 melanoma
[14] = tested on: A498 renal
[15] = tested on: UACC-257 melanoma
[16] = tested on: SF-268 CNS
[17] = tested on: SW-620 colon
[18] = tested on: DLD-1 colon
[19] = tested on: OVCAR-5 ovarian
[20] = tested on: RPMI-8226 leukemia
[21] = tested on: HT29 colon
[22] = tested on: SF-539 CNS
[23] = tested on: KM12 colon
[24] = tested on: OVCAR-3 ovarian
[25] = tested on: HOP-18 NSCLC
[26] = tested on: LOX IMVI melanoma
[27] = tested on: LXFL 529 NSCLC
[28] = tested on: U251 CNS
[29] = tested on: A549 NSCLC
[30] = tested on: SNB-78 CNS
[31] = tested on: OVCAR-8 ovarian
[32] = tested on: NCI-H522 lung
[33] = tested on: CAKI-1 renal
[34] = tested on: M19-MEL melanoma
[35] = tested on: ACHN renal
[36] = tested on: SK-MEL-5 melanoma
[37] = tested on: COLO 205 colon
[38] = tested on: 786-0 renal
[39] = tested on: NCI-H460 lung
[40] = tested on: HOP-62 NSCLC
[41] = tested on: SNB-19 CNS
[42] = tested on: SF-295 CNS
[43] = tested on: UO-31 renal
[44] = tested on: SR leukemia
[45] = tested on: HOP-92 NSCLC
[46] = tested on: IGROV1 ovarian
[47] = tested on: SK-OV-3 ovarian
[48] = tested on: MALME-3M melanoma
[49] = tested on: HL-60(TB) leukemia
[50] = tested on: KM20L2 colon
[51] = tested on: CCRF-CEM leukemia
[52] = tested on: HCT-116 colon
[53] = tested on: EKVX NSCLC
[54] = tested on: MCF7 breast
[55] = tested on: DMS 273 small cell lung
[56] = tested on: MDA-N
[57] = tested on: HCC-2998 colon
[58] = tested on: DU-145 prostate
[59] = tested on: MDA-MB-231 breast
[60] = tested on: MDA-MB-435
[61] = tested on: PC-3 prostate

CCN(CC)CCNc1ccc2ncn3c4ccccc4c(=O)c1c23 was tested, and the TGI [1] was 16400 nM, the TGI [2] was 17500 nM and the TGI [3] was 14600 nM. For the same compound, the TGI [4] was > 100000 nM, the TGI [5] was 79900 nM and the TGI [6] was > 100000 nM. For the same compound, the TGI [7] was > 100000 nM, the TGI [8] was 7670 nM and the TGI [9] was 16800 nM. It also gave a TGI [10] of 16000 nM, a TGI [11] of 9530 nM and a TGI [12] of 19800 nM. The TGI [13] was 16300 nM, the TGI [14] was 20600 nM and the TGI [15] was 15100 nM. The TGI [16] was 18700 nM, the TGI [17] was 16000 nM and the TGI [18] was 18900 nM. The TGI [19] was 34100 nM, the TGI [20] was > 100000 nM and the TGI [21] was 11000 nM. It also gave a TGI [22] of 18000 nM, a TGI [23] of 17600 nM and a TGI [24] of 49700 nM. For the same compound, the TGI [25] was 37400 nM, the TGI [26] was 3730 nM and the TGI [27] was 18300 nM. It also gave a TGI [28] of 17500 nM, a TGI [29] of 10200 nM and a TGI [30] of 18900 nM. It also gave a TGI [31] of 13300 nM, a TGI [32] of 12300 nM and a TGI [33] of 6730 nM. For the same compound, the TGI [34] was 13900 nM, the TGI [35] was 12200 nM and the TGI [36] was 13300 nM. It also gave a TGI [37] of 9780 nM, a TGI [38] of 15400 nM and a TGI [39] of 8980 nM. It also gave a TGI [40] of 21600 nM, a TGI [41] of 32000 nM and a TGI [42] of 14500 nM. For the same compound, the TGI [43] was 12200 nM, the TGI [44] was > 100000 nM and the TGI [45] was 10400 nM. For the same compound, the TGI [46] was 15700 nM, the TGI [47] was 14300 nM and the TGI [48] was 15100 nM. The TGI [49] was > 100000 nM, the TGI [50] was 17900 nM and the TGI [51] was > 100000 nM. It also gave a TGI [52] of 12800 nM.

With COc1cc(C2C3=C(COC3=O)Oc3cc4c(cc32)OCO4)cc(OC)c1OC (configuration not stated) the GI50 [1] was 11100 nM, the TGI [1] was > 31600 nM and the TGI [2] was 38.4 nM and 13.1 nM. For the same compound, the TGI [3] was > 31600 nM, the GI50 [4] was 32 nM and the TGI [4] was 131 nM. For the same compound, the GI50 [53] was 660 nM, the GI50 [54] was 20.4 nM and the TGI [6] was 15100 nM. It also gave a GI50 [7] of 37 nM, a TGI [7] of 20900 nM and a TGI [8] of 230 nM. The TGI [55] was 12700 nM, the GI50 [9] was < 18.1 nM and the TGI [9] was > 31600 nM. The GI50 [10] was 35.4 nM, the TGI [56] was 53.2 nM and the TGI [11] was 28500 nM. For the same compound, the GI50 [12] was 28 nM, the GI50 [13] was 262 nM and the GI50 [14] was 36.3 nM. The TGI [14] was 18.6 nM, the TGI [15] was 2860 nM and the TGI [17] was > 31600 nM. The TGI [18] was > 100000 nM, the GI50 [20] was < 17.6 nM and the TGI [20] was > 31600 nM. For the same compound, the GI50 [21] was 10.5 nM and 26 nM, the TGI [21] was 44.4 nM and the GI50 [22] was 14.9 nM. The TGI [22] was 49.7 nM and 42.7 nM, the GI50 [23] was 10.1 nM and the TGI [23] was 144 nM. For the same compound, the TGI [24] was 70.9 nM and 88.3 nM, the GI50 [25] was > 100000 nM and the TGI [25] was > 100000 nM. For the same compound, the GI50 [26] was 9.94 nM, the TGI [26] was > 31600 nM and the GI50 [57] was 21.4 nM. For the same compound, the TGI [57] was 62 nM, the GI50 [58] was 22 nM and the TGI [58] was 87.5 nM and 67.1 nM. For the same compound, the GI50 [28] was < 21.3 nM, the GI50 [29] was < 20.4 nM and the TGI [29] was 14200 nM. The TGI [30] was 50600 nM, the TGI [59] was 694 nM and the TGI [33] was 134 nM. The TGI [34] was > 100000 nM, the GI50 [35] was < 15 nM and the TGI [35] was 16400 nM. For the same compound, the GI50 [36] was < 16.2 nM, the TGI [36] was 189 nM and 681 nM and the GI50 [60] was 48.5 nM. For the same compound, the TGI [60] was 80.4 nM and 291 nM, the GI50 [37] was < 13.8 nM and the TGI [37] was 92.9 nM and 38.5 nM. For the same compound, the GI50 [38] was 45.6 nM, the GI50 [39] was < 18.5 nM and the GI50 [40] was 20 nM. For the same compound, the TGI [40] was 2140 nM, the GI50 [41] was 47.4 nM and the TGI [41] was 17400 nM. For the same compound, the TGI [42] was 57.5 nM, the GI50 [43] was < 31.5 nM and the TGI [43] was 16100 nM. For the same compound, the GI50 [61] was 20.3 nM, the TGI [61] was 313 nM and the GI50 [45] was < 11.7 nM. The TGI [45] was 88.2 nM and 90.1 nM, the GI50 [46] was 18.1 nM and the TGI [46] was 13300 nM. For the same compound, the GI50 [47] was 32 nM, the TGI [47] was 13200 nM and the GI50 [48] was 36 nM. For the same compound, the TGI [49] was 50.2 nM and 41.3 nM, the TGI [50] was 42.1 nM and 28.3 nM and the GI50 [51] was 22.1 nM. For the same compound, the TGI [51] was 338 nM and 62.5 nM and the TGI [52] was 235 nM and 1890 nM.
